Here are results for 2 compounds from ChEMBL document CHEMBL4196183, “Discovery of New Allosteric Modulators of the Urotensinergic System through Substitution of the Urotensin II-Related Peptide (URP) Phenylalanine Residue” (J Med Chem, 2018).

Activity calls are given as the source filed them. The rule behind the calls is not given here.

Assay [1] deals with T1, Urotensin-2 receptor (Homo sapiens, UniProt Q9UKP6).
T1 sequence (Q9UKP6 whole entry): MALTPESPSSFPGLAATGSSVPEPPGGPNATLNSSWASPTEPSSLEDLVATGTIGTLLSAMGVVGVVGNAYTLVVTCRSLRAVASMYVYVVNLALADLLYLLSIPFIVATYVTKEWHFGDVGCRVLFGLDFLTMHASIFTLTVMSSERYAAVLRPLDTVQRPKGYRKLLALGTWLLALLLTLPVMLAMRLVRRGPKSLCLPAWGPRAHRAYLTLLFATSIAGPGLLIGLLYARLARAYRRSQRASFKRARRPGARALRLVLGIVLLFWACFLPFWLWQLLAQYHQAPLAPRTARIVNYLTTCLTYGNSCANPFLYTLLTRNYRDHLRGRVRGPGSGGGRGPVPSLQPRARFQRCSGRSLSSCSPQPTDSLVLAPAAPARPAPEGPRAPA
The experiment in a line: Displacement of [Na125I]-synthetic URP from human UT receptor expressed in HEK293 cell membranes incubated for 2 hrs by gamma-counting.

The target in assay [2] is T2, Urotensin-2 receptor (Rattus norvegicus, UniProt P49684).
T2 sequence (P49684 whole entry): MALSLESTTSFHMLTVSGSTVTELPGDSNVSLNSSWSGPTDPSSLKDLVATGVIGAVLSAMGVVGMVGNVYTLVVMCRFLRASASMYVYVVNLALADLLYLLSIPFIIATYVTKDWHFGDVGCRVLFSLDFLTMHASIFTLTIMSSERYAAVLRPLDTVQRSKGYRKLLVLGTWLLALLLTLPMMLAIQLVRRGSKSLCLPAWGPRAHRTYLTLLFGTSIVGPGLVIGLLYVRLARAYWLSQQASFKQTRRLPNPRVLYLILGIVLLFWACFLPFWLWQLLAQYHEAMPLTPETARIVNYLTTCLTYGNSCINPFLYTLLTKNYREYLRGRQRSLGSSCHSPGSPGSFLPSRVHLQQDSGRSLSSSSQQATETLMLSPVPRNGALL
The experiment in a line: Agonist activity at UT receptor in Sprague-Dawley rat thoracic aortic ring assessed as induction of contraction. It counts as functional.

Assay [3] has as its target T3, Urotensin-2 receptor (Rattus norvegicus) (UniProt P49684).
T3 sequence (whole entry): T2 sequence (P49684 whole entry)
The experiment in a line: Antagonist activity at UT receptor in Sprague-Dawley rat thoracic aortic ring assessed as reduction in urotensin-2-induced contraction by measuring pEC50 for human urotensin-2-induced contraction at 1 uM pre-incubated for 30 mins before urotensin-2 stimulation (reference value: 8.59 +/- 0.12). Type of assay: functional.

Assay [4] addresses T3, Urotensin-2 receptor (Rattus norvegicus). In words: Antagonist activity at UT receptor in Sprague-Dawley rat thoracic aortic ring assessed as reduction in urotensin-2-induced contraction by measuring Emax for human urotensin-2-induced contraction at 1 uM pre-incubated for 30 mins before urotensin-2 stimulation relative to KCl-induced contraction (reference value: 101 +/- 4%). It counts as functional.

The target is the same in assay [5]. In words: Antagonist activity at UT receptor in Sprague-Dawley rat thoracic aortic ring assessed as reduction in URP-induced contraction by measuring Emax for […] at 1 uM pre-incubated for 30 mins […] relative to KCl-induced contraction (reference value: 107 +/- 3%). It counts as functional.
Assay [6] deals with T4, Urotensin-2 receptor (Homo sapiens) (UniProt Q9UKP6).
T4 sequence (whole entry): T1 sequence (Q9UKP6 whole entry)
The experiment in a line: Agonist activity at human UT receptor expressed in HEK293 cells co-expressing Gq-polycistronic BRET biosensor assessed as induction of Gq activation measured for 5 mins by luminescence detection based BRET assay relative to 10 uM URP. Type of assay: functional, cell-based. Background: Bioluminescence resonance energy transfer reports proximity on the nanometre scale.

The target of assay [7] is T1, Urotensin-2 receptor. In words: Agonist activity at human UT receptor expressed in HEK293 cells co-expressing G12-polycistronic BRET biosensor assessed as induction of G12 activation measured for 5 mins by luminescence detection based BRET assay. Type of assay: functional, cell-based.
Assay [8] concerns the target T4, Urotensin-2 receptor (Homo sapiens). In words: Agonist activity at human UT receptor expressed in HEK293 cells co-expressing G12-polycistronic BRET biosensor assessed as induction of G12 activation measured for 5 mins by luminescence detection based BRET assay relative to 10 uM URP. It counts as functional, cell-based.
Assay [9] concerns the target T1, Urotensin-2 receptor. In words: Agonist activity at human UT receptor expressed in HEK293 cells co-expressing beta-arrestin1-polycistronic BRET biosensor assessed as induction of beta-arrestin1 recruitment measured for 5 mins by luminescence detection based BRET assay. It counts as functional, cell-based.
The target of assay [10] is T4, Urotensin-2 receptor (Homo sapiens). In words: Agonist activity at human UT receptor expressed in HEK293 cells co-expressing beta-arrestin1-polycistronic BRET biosensor assessed as induction of beta-arrestin1 recruitment measured for 5 mins by luminescence detection based BRET assay relative to 10 uM URP. It counts as functional, cell-based.
For assay [11] the target is unchanged. In words: Selectivity index, change in deltalog(Tau/KA) for agonist activity at human UT receptor expressed in HEK293 cells co-expressing G12-polycistronic BRET biosensor assessed as induction of G12 activation by luminescence detection based BRET assay to deltalog(Tau/KA) for agonist activity at human UT receptor expressed in HEK293 cells co-expressing Gq-polycistronic BRET biosensor assessed as induction of Gq activation by luminescence detection based BRET assay. Type of assay: functional, cell-based.

For assay [12] the target is unchanged. In words: Bias factor, ratio of deltalog(Tau/KA) for agonist activity at human UT receptor expressed in HEK293 cells co-expressing Gq-polycistronic BRET biosensor assessed as induction of Gq activation by luminescence detection based BRET assay to deltalog(Tau/KA) for agonist activity at human UT receptor expressed in HEK293 cells co-expressing G12-polycistronic BRET biosensor assessed as induction of G12 activation by luminescence detection based BRET assay. Type of assay: functional, cell-based.

The target is the same in assay [13]. The experiment in a line: Bias factor, ratio of deltalog(Tau/KA) for agonist activity at human UT receptor expressed in HEK293 cells co-expressing Gq-polycistronic BRET biosensor assessed as induction of Gq activation by luminescence detection based BRET assay to deltalog(Tau/KA) for agonist activity at human UT receptor expressed in HEK293 cells co-expressing beta-arrestin1-polycistronic BRET biosensor assessed as induction of beta-arrestin1 recruitment by luminescence detection based BRET assay. Type of assay: functional, cell-based.

Assay [14] shares this target. In words: Bias factor, ratio of deltalog(Tau/KA) for agonist activity at human UT receptor expressed in HEK293 cells co-expressing beta-arrestin1-polycistronic BRET biosensor assessed as induction of beta-arrestin1 recruitment by luminescence detection based BRET assay to deltalog(Tau/KA) for agonist activity at human UT receptor expressed in HEK293 cells co-expressing Gq-polycistronic BRET biosensor assessed as induction of Gq activation by luminescence detection based BRET assay. Type of assay: functional, cell-based.

Assay [15] has the same target. The experiment in a line: Selectivity index, change in deltalog(Tau/KA) for agonist activity at human UT receptor expressed in HEK293 cells co-expressing beta-arrestin1-polycistronic BRET biosensor assessed as induction of beta-arrestin1 recruitment by luminescence detection based BRET assay to deltalog(Tau/KA) for agonist activity at human UT receptor expressed in HEK293 cells co-expressing G12-polycistronic BRET biosensor assessed as induction of G12 activation by luminescence detection based BRET assay to. It counts as functional, cell-based.

The target is the same in assay [16]. In words: Bias factor, ratio of deltalog(Tau/KA) for agonist activity at human UT receptor expressed in HEK293 cells co-expressing beta-arrestin1-polycistronic BRET biosensor assessed as induction of beta-arrestin1 recruitment by luminescence detection based BRET assay to deltalog(Tau/KA) for agonist activity at human UT receptor expressed in HEK293 cells co-expressing G12-polycistronic BRET biosensor assessed as induction of G12 activation by luminescence detection based BRET assay. It counts as functional, cell-based.

`CC(C)[C@H](NC(=O)[C@@H]1CSSC[C@H](NC(=O)[C@H](C)N)C(=O)N[C@@H](Cc2ccc(C#Cc3ccccc3)cc2)C(=O)N[C@@H](Cc2c[nH]c3ccccc23)C(=O)N[C@@H](CCCCN)C(=O)N[C@@H](Cc2ccc(O)cc2)C(=O)N1)C(=O)O`: the IC50 (in general, the point on the concentration scale where inhibition reaches its midpoint) in [1] is 26.9 nM. Moreover, the EC50 (in general, the concentration needed to bring the measured effect to its halfway point) was 32.4 nM in assay [2], 148 nM in [7] and 759 nM in [9]. In addition, the pEC50 entry in assay [3] is “Active”. Also, the Emax (usually the greatest response seen or fitted, relative to the assay's reference) in assay [4] is 15%; in [5] it was 25%; in assay [6] it was 102%; in assay [8] it was 78%; in assay [10], 94%. For the same compound, the deltalog(Tau/KA) in assay [11] came to 0.24. The fold change (FC) in [12] was 0.6; in assay [13], 0.9; in assay [14], 1.1; in [16] it was 0.6. Further, the deltadeltalog(Tau/KA) (beta-arrestin1 selectivity index) in assay [15] was -0.22.
Turning to `CC(C)[C@H](NC(=O)[C@@H]1CSSC[C@H](NC(=O)[C@H](C)N)C(=O)N[C@@H](Cc2ccc(-c3ccccc3)cc2)C(=O)N[C@@H](Cc2c[nH]c3ccccc23)C(=O)N[C@@H](CCCCN)C(=O)N[C@@H](Cc2ccc(O)cc2)C(=O)N1)C(=O)O`, the IC50 in assay [1] was 5.37 nM. Also, the values for the EC50 in [2], in assay [7] and in [9] were 28.8 nM, 120 nM and 603 nM, respectively. In assay [3], the pEC50 result is “Active”. The Emax in assay [4] came out at 23%; in assay [5], 31%; in [6], 91%; in [8], 80%; in assay [10], 76%. Also, the deltalog(Tau/KA) in [11] amounted to 0.15. Besides, the fold change (FC) in [12] was determined as 0.7; in assay [13], 2.8; in [14] it was 0.4; in [16], 0.3. Also, the deltadeltalog(Tau/KA) (beta-arrestin1 selectivity index) in [15] was -0.6.
